Key:
mouse peritoneal PMNs = test: ROS chemiluminescence of PMA-activated PMNs, L-012 vs. luminol; format: cell-based; details: 1×10^6 PMNs, 2 mM probe; for chemiluminescence emission with PMA activation: PMA (6.5 nM)
Experimental: The ROS measurements were initiated by adding 10 μl of PMA (6.5 nM) at room temperature. Chemiluminescence images 410, 420 were captured with a 5 minute acquisition time using a Kodak In Vivo FX Pro system (f/stop, 2.5; no optical filter, 4×4 binning).

[1] = test system: isolated neutrophils (PMNs); test: detection of ROS generated by isolated PMA-activated neutrophils with nanoprobes; format: cell-based; details: 5 mM Tempol; fluorescence signal remained constant
Experimental: A number of PMN (5×10^4 to 1×10^6) were incubated in 0.25 ml of 0.9% NaCl solution containing 10 mM phosphate buffer (pH 7.4), 6 mM KCl, and 6 mM MgCl2 in the presence of the nanoprobes (10 μl, 0.5 mg/ml). After incubation of the mixture for 3 min at 37° C., the reaction were initiated by adding 6 nM phorbol 12-myristate 13-acetate (PMA). During the incubation, chemiluminescence and fluorescence intensities were recorded continuously for 60 minutes using a microplate reader.
To verify whether the chemiluminescence signals resulted from ROS generated by activated PMNs, similar PMN-mediated chemiluminescence measurements were carried out in the presence or absence of Tempol, a superoxide dismutase mimetic/ROS neutralizer.

[2] = test system: hypertension-suffering eye; test: in vivo oxidative stress imaging of mouse eyes; details: L-012 10 μL, 15 mg/mL topically on eyes
Experimental: Referring now to FIG. 5, subsequent studies were carried out to evaluate the feasibility of L-012 for in vivo oxidative stress imaging. L-012 (10 μL, 15 mg/mL) was topically dropped on a mouse's eyes with hypertension-suffering left eye 510 or control right eye 520. The animal was sedated and then imaged with a Kodak in vivo FX imaging system, resulting in image 500. A strong bioluminescence signal was found in the hypertension-suffering left eye 510, while control right eye 520 emitted low or no chemiluminescence.

Compound | chemiluminescence emission with PMA activation (mouse peritoneal PMNs) | PMN-mediated chemiluminescence intensity in the presence of Tempol [1] | chemiluminescence signal intensity relative to luminol (mouse peritoneal PMNs; PMA activation, 5 minute acquisition) | signal enhancement in hypertension-suffering eye vs control eye [2]
1,4-phthalazinedione, 5-amino-2,3-dihydro [luminol] | emitted chemiluminescence |  |  | 
CC1(C)CC(O)CC(C)(C)N1[O] [Tempol] |  | substantially reduced |  | 
Nc1c(-c2ccccc2)nc(Cl)c2c(=O)[nH][nH]c(=O)c12 [L-012, 8-amino-5-chloro-7-phenylpyridol[3,4-d]pyridazine-1,4 (2H,3H)dione] | emitted chemiluminescence |  | approximately 1000 fold | ten-fold

From patent US20160106868A1, “OXYGEN FREE RADICAL DETECTION” (Progenitec Inc., priority 2014, published 2016)
